These results are taken from patent US12435128B2, “Method for predicting therapeutic effect of LSD1 inhibitor based on expression of INSM1” (TAIHO PHARMACEUTICAL CO., LTD., priority 2017, dated 2025).

What all share (assay type): cell-based
For experiment [1], the system named is HEL cells (human acute myelocytic leukemia cell lines). Briefly: Cell-growth inhibition test: HEL cells. The note with it: read-out: IC50 (nM), Cell-Growth Inhibition Test: HEL Cells. The procedure: (§1) Under the following conditions, an in vitro cell-growth inhibition test was performed with respect to HEL cells (human acute myelocytic leukemia cell lines), NCI-H1417 cells (human small-cell lung cancer cell lines), and NCI-H146 cells (human small-cell lung cancer cell lines).
(§2) The cells with the Example compound or with dimethylsulfoxide alone were cultured at 37° C. in a 5% carbon-dioxide-containing incubator for 5 days (HEL cells) or 10 days (NCI-H1417 cells and NCI-H146 cells). After culture, the plate was allowed to stand at room temperature for 30 minutes, and 100 μL of the supernatant was removed from each well to leave 100 μL of the cell culture solution. To each well containing the remaining 100 μL of the cell culture solution, the same amount of CellTiter-Glo 2.0 Assay (Promega, Cat #: G9242) was added. The microplate was shaken with a plate mixer for 1 minute and then allowed to stand in a dark place for 10 minutes. Thereafter, the luminescence intensity of viable cells in each well was measured using a microplate reader (PerkinElmer, EnSpire). […] Cell growth rate(%)=T/C×100 • T: The luminescence intensity in a well to which the test compound was added (count per second) • C: The luminescence intensity in a well to which dimethylsulfoxide alone was added (count per second)

In experiment [2] the test system is NCI-H1417 cells (human small-cell lung cancer cell lines). Nature of the experiment: Cell-growth inhibition test: NCI-H1417 cells. As for the experimental part:
as §1, §2

In experiment [3] the test system is NCI-H146 cells (human small-cell lung cancer cell lines). Nature of the experiment: Cell-growth inhibition test: NCI-H146 cells. The procedure: as §1, §2
The mark [4] stands for this setting: read-out: IC50 (nM), Cell-Growth Inhibition Test: NCI-H1417 Cells.
[5] abbreviates: NCI-H146 cells, read-out: IC50 (nM), Cell-Growth Inhibition Test: NCI-H146 Cells.
Setting [6] is: Homo sapiens, NCI-H146, read-out: IC50 (nM), Cell-Growth Inhibition Test: NCI-H146 Cells.
Where [7] appears, read: NCI-H1417 cells, read-out: IC50 (nM), Cell-Growth Inhibition Test: NCI-H1417 Cells.
Where [8] appears, read: Homo sapiens, NCI-H1417, read-out: IC50 (nM), Cell-Growth Inhibition Test: NCI-H1417 Cells.

Where a name gives a salt, the structure may show the parent alone. Read-outs that look alike come from different tables or passages of the source.

As a reminder, the IC50 is the point on the concentration scale where inhibition reaches its midpoint. Consider `CC(C)(O)CC1OCc2cc(-c3ccc(C(=O)N4[C@@H]5CC[C@H]4[C@@H](N)C5)cc3-c3ccc(C#N)c(F)c3)c(F)cc21` (single isomer, unassigned) [Example 226], for which the values for the IC50 in experiment [1], in experiment [2] (setting [4]) and in experiment [3] (setting [5]) were 2.56 nM, 5.36 nM and 10.1 nM, respectively.

Consider `CC(C)(O)Cn1ncc2cc(-c3ccc(C(=O)N4[C@@H]5CC[C@H]4[C@@H](N)C5)cc3-c3ccc(C#N)c(F)c3)c(F)c(F)c21` (relative stereo) [Example 195, 5′-((1S,2S,4R)-rel-2-amino-7-azabicyclo[2.2.1]heptane-7-carbonyl)-2′-(6,7-difluoro-1-(2-hydroxy-2-methylpropyl)-1H-indazol-5-yl)-3-fluoro-[1,1′-biphenyl]-4-carbonitrile], for which, in experiment [3] (setting [6]), the IC50 came to 1.28 nM.

Consider `N#Cc1ccc(-c2cc(C(=O)N3[C@@H]4CC[C@H]3[C@@H](N)C4)ccc2-c2cc3nnn(CC4(O)CCC4)c3c(C(F)F)c2F)cc1F` (single isomer, unassigned) [Example 260], for which the half-maximal inhibitory concentration (IC50) in experiment [1] worked out at 0.13 nM; in experiment [2] (setting [4]), 0.13 nM; in experiment [3] (setting [5]) it was 0.48 nM.

Turning to `CCC(O)(CC)Cn1nnc2cc(-c3ccc(CN4[C@@H]5CC[C@H]4[C@@H](N)C5)cc3-c3ccc(C#N)c(F)c3)c(F)c(Cl)c21` (single isomer, unassigned) [Example 288, dihydrochloride], the results for the IC50 in experiment [1], in experiment [2] (setting [4]) and in experiment [3] (setting [5]) were 0.062 nM, 0.22 nM and 1.29 nM, respectively. As to `Cn1cnc2cc(-c3ccc(C(=O)N4C5CCC4CC(N)C5)cc3-c3ccc(C#N)c(F)c3)c(F)cc21` (stereo not drawn) [Example 108, 4-[5-[(3-exo)-3-amino-8-azabicyclo[3.2.1]octane-8-carbonyl]-2-(6-fluoro-1-methyl-benzimidazol-5-yl)phenyl]-2-fluoro-benzonitrile], the values for the 50% inhibitory concentration (IC50) in experiment [1] (HEL cells) and in experiment [2] (setting [7]) were 36.4 nM and 3.99 nM, respectively. As for `CC(C)(O)Cn1ncc2cc(-c3ccc(CN4[C@@H]5CC[C@H]4[C@@H](N)C5)cc3-c3ccc(C#N)c(F)c3)c(F)cc21` (single isomer, unassigned) [Example 287, dihydrochloride], the IC50 in experiment [2] (setting [4]) worked out at 0.1 nM; in experiment [3] (setting [5]) it was 0.2 nM. In the same order, the values of `Cn1cc(C(N)=O)c2cc(-c3ccc(C(=O)N4[C@@H]5CC[C@H]4[C@@H](N)C5)cc3-c3ccc(C#N)c(F)c3)c(F)cc21` (single isomer, unassigned) [Example 236] are 11 nM and 28.5 nM. Take `CC(C)(O)Cn1nnc2cc(-c3ccc(C(=O)N4[C@H]5CC[C@@H]4[C@H](N)C5)cc3-c3ccc(C#N)c(F)c3)c(F)c(C3CC3)c21` (single isomer, unassigned) [Example 279]: the IC50 in experiment [1] was 1.59 nM; in experiment [2] (setting [4]), 0.9 nM. Consider `CC(C)(O)Cn1nnc2cc(-c3ccc(C(=O)N4[C@@H]5CC[C@H]4[C@@H](N)C5)cc3-c3ccc(C#N)c(F)c3)c(F)c(C(F)F)c21` (single isomer, unassigned) [Example 246], for which the IC50 came to 0.37 nM in experiment [1] and 0.81 nM in experiment [2] (setting [4]). Take `CC(C)(O)Cn1nnc2cc(-c3ccc(C(=O)N4[C@@H]5CC[C@H]4[C@@H](N)C5)cc3-c3ccc(C#N)c(F)c3)c(F)c(Cl)c21` (single isomer, unassigned) [Example 209]: the values for the IC50 in experiment [1] and in experiment [3] (setting [5]) were 0.24 nM and 0.22 nM, respectively.

`CC(C)(O)Cn1ncc2cc(-c3ccc(C(=O)N4C5CCC4CC(N)C5)cc3-c3ccc(C#N)c(F)c3)c(F)cc21` (stereo not drawn) [Example 142, 5′-((3-endo)-3-amino-8-azabicyclo[3.2.1]octane-8-carbonyl)-3-fluoro-2′-(6-fluoro-1-(2-hydroxy-2-methylpropyl)-1H-indazol-5-yl)-[1,1′-biphenyl]-4-carbonitrile]: the IC50 was found to be 3.88 nM in experiment [1] and 3.79 nM in experiment [2] (setting [4]). Consider `Cn1c(=O)sc2cc(-c3ccc(C(=O)N4C5CCC4CC(N)C5)cc3-c3ccc(C#N)c(F)c3)ccc21` (stereo not drawn) [Example 133, 4-[5-[(3-endo)-3-amino-8-azabicyclo[3.2.1]octane-8-carbonyl]-2-(3-methyl-2-oxo-1,3-benzothiazol-6-yl)phenyl]-2-fluoro-benzonitrile], for which the IC50 in experiment [1] (HEL cells) amounted to 17.7 nM; in experiment [2] (setting [7]) it was 17.9 nM. `CC(C)(O)Cc1ccc(-c2ccc(CN3[C@@H]4CC[C@H]3[C@@H](N)C4)cc2-c2ccc(C#N)c(F)c2)c(F)c1` (single isomer, unassigned) [Example 290, dihydrochloride]: the figures for the IC50 in experiment [2] (setting [4]) and in experiment [3] (setting [5]) were 1.06 nM and 2.12 nM, respectively. On to `CC(C)(O)Cn1nnc2cc(-c3ccc(C(=O)N4[C@@H]5CC[C@H]4[C@@H](N)C5)cc3-c3ccc(C#N)c(F)c3)c(F)c(Br)c21` (single isomer, unassigned) [Example 273], for which the IC50 in experiment [1] turned out to be 0.27 nM; in experiment [3] (setting [5]), 0.63 nM.

With `Cn1cnc2cc(-c3ccc(C(=O)N4C5CCC4CC(N)C5)cc3-c3ccc(C#N)c(F)c3)c(F)cc21` (stereo not drawn) [Example 130, 4-[5-[(3-endo)-3-amino-8-azabicyclo[3.2.1]octane-8-carbonyl]-2-(6-fluoro-1-methyl-benzimidazol-5-yl)phenyl]-2-fluoro-benzonitrile], the 50% inhibitory concentration (IC50) came to 22.2 nM in experiment [1] (HEL cells) and 8.25 nM in experiment [2] (setting [7]). In the same order, the values of `Cn1nnc2cc(-c3ccc(C(=O)N4C5CCC4CC(N)C5)cc3-c3ccc(C#N)c(F)c3)c(F)cc21` (stereo not drawn) [Example 125, 4-[5-[(3-endo)-3-amino-8-azabicyclo[3.2.1]octane-8-carbonyl]-2-(6-fluoro-1-methyl-benzotriazol-5-yl)phenyl]-2-fluoro-benzonitrile] are 7.57 nM and 8.43 nM. Regarding `N#Cc1ccc(-c2cc(C(=O)N3[C@@H]4CC[C@H]3[C@@H](N)C4)ccc2-c2cc3nnn(CC4(O)CCC4)c3c(Cl)c2F)cc1F` (single isomer, unassigned) [Example 257], the IC50 in experiment [1] was found to be 0.13 nM; in experiment [3] (setting [5]), 0.39 nM. For the compound `CC(C)(O)Cc1ccc(-c2ccc(C(=O)N3C4CCC3CC(N)C4)cc2-c2ccc(C#N)c(F)c2)c(F)c1` (stereo not drawn) [Example 28, 4-[5-[(3-exo)-3-amino-8-azabicyclo[3.2.1]octane-8-carbonyl]-2-[2-fluoro-4-(2-hydroxy-2-methyl-propyl)phenyl]phenyl]-2-fluoro-benzonitrile], the IC50 in experiment [2] (setting [7]) was 4.4 nM. For `N#Cc1ccc(-c2cc(C(=O)N3CC[C@H](N)C3)ccc2-c2cc3nnn(CC4(O)CCC4)c3c(C(F)F)c2F)cc1F` [Example 261, (S)-5′-(3-aminopyrrolidine-1-carbonyl)-2′-(7-(difluoromethyl)-6-fluoro-1-((1-hydroxycyclobutyl)methyl)-1H-benzo[d][1,2,3]triazol-5-yl)-3-fluoro-[1,1′-biphenyl]-4-carbonitrile], the IC50 in experiment [3] (setting [6]) is 32.3 nM. As for `COCCc1ccc(-c2ccc(C(=O)N3CCCC(N)CC3)cc2-c2ccc(C#N)c(F)c2)c(F)c1` (centres unmarked) [Example 165, 5′-(4-aminoazepan-1-carbonyl)-2″,3-difluoro-4″-(2-methoxyethyl)-[1,1′:2′,1″-terphenyl]-4-carbonitrile], the IC50 was found to be 0.62 nM in experiment [1] (Homo sapiens, HEL) and 1.42 nM in experiment [2] (setting [8]). Take `COCCc1ccc(-c2ccc(C(=O)N3C4CCC3CC(NC(C)C)C4)cc2-c2ccc(C#N)c(F)c2)c(F)c1` (stereo not drawn) [Example 112, 2-fluoro-4-[2-[2-fluoro-4-(2-methoxyethyl)phenyl]-5-[(3-exo)-3-(isopropylamino)-8-azabicyclo[3.2.1]octane-8-carbonyl]phenyl]benzonitrile]: the half-inhibitory concentration (IC50) in experiment [2] (setting [7]) is 20.5 nM. Consider `CC(C)(O)Cn1cc(C(=O)O)c2cc(-c3ccc(C(=O)N4[C@@H]5CC[C@H]4[C@@H](N)C5)cc3-c3ccc(C#N)c(F)c3)c(F)cc21` (single isomer, unassigned) [Example 222], for which the IC50 in experiment [1] came to 38 nM; in experiment [2] (setting [4]) it was 41.8 nM.

As for `Cn1c(=O)oc2cc(-c3ccc(C(=O)N4CC[C@H](N)C4)cc3-c3ccc(C#N)c(F)c3)ccc21` [Example 119, 4-[5-[(3S)-3-aminopyrrolidine-1-carbonyl]-2-(3-methyl-2-oxo-1,3-benzooxazol-6-yl)phenyl]-2-fluoro-benzonitrile], the IC50 in experiment [2] (setting [8]) came out at 23.9 nM. For the compound `Cc1ccc(-c2ccc(C(=O)N3C4CCC3CC(N)C4)cc2-c2ccc(C#N)cc2)cc1` (stereo not drawn) [Example 7, 4-[5-[(3-exo)-3-amino-8-azabicyclo[3.2.1]octane-8-carbonyl]-2-(p-tolyl)phenyl]benzonitrile], the IC50 in experiment [1] (HEL cells) turned out to be 14.8 nM; in experiment [2] (setting [7]), 26 nM. On to `CC(C)(O)Cn1ccc2cc(-c3ccc(C(=O)N4C5CCC4CC(N)C5)cc3-c3ccc(C#N)c(F)c3)c(F)cc21` (stereo not drawn) [Example 136, 5′-((3-endo)-3-amino-8-azabicyclo[3.2.1]octane-8-carbonyl)-3-fluoro-2′-(6-fluoro-1-(2-hydroxy-2-methylpropyl)-1H-indol-5-yl)-[1,1′-biphenyl]-4-carbonitrile], for which the IC50 in experiment [2] (setting [4]) turned out to be 2.39 nM.
